In publication PMC7129073 (Clinical Microbiology and Infection, 2015):
Converted amounts (≈) assume the structure as drawn. Like-named read-outs stand apart in the source and are kept apart here.

Assays:
[1] = system: H. influenzae; assay: Disk diffusion; type: cell-based, Haemophilus influenzae; conditions: 237 isolates
[2] = system: E. faecalis; assay: E-test susceptibility; type: cell-based, Enterococcus faecalis
[3] = system: Shigella spp.; assay: Disk diffusion, stool isolates Tehran; type: cell-based; conditions: 96 isolates
[4] = system: M. catarrhalis; assay: PROTEKT Italy, NCCLS microdilution; type: cell-based, Moraxella catarrhalis
[5] = system: C. jejuni ATCC 33560; assay: VetMIC broth microdilution, QC strain; type: cell-based; conditions: Campylobacter jejuni, ATCC33560, read-out: QC limits (MIC)
[6] = system: Haemophilus influenzae; assay: Susceptibility testing; type: cell-based; conditions: conjunctival isolates 2000–2004
[7] = system: E. coli; assay: Disk diffusion, urine isolates of BPH patients; conditions: strains isolated after operative intervention
[8] = system: Staphylococcus aureus; assay: Susceptibility testing; type: cell-based; conditions: conjunctival isolates 2000–2004
[9] = system: Escherichia coli; assay: Vitek 2 susceptibility, urine isolates of children; type: cell-based
[10] = system: ERSP; assay: Broth microdilution; type: cell-based, Streptococcus pneumoniae; conditions: Streptococcus pneumoniae
[11] = system: intestinal Escherichia coli; assay: ampicillin resistance of intestinal isolates during treatment; parameters: species or system beagles; conditions: dog, in vivo
[12] = system: H.influenzae; assay: Broth microdilution; type: cell-based, Haemophilus influenzae
[13] = system: H. influenzae; type: cell-based, Haemophilus influenzae
[14] = system: Salmonella spp.; assay: Agar dilution susceptibility, gastroenteritis isolates Cuba; type: cell-based; conditions: 34 strains, 2002
[15] = system: enterococci; assay: Disk diffusion and E-test, faecal isolates of cancer patients; type: cell-based, Enterococcus; conditions: 38 strains; gentamycin: high level
[16] = system: S. pneumoniae; assay: Broth microdilution; type: cell-based, Streptococcus pneumoniae
[17] = system: E. faecalis; assay: Italian survey of severe infections 2003, MIC; type: cell-based, Enterococcus faecalis
[18] = system: H. influenzae; assay: Disk diffusion, sputum isolates Athens 2001–2004; type: cell-based, Haemophilus influenzae
[19] = system: Moraxella spp.; assay: Disk diffusion; type: cell-based; conditions: 35 isolates
[20] = system: Salmonella, other 49 serotypes; assay: Disk diffusion, food isolates Spain; type: cell-based; conditions: n = 115
[21] = system: PRSP; assay: Broth microdilution; type: cell-based, Streptococcus pneumoniae
[22] = system: Staphylococcus coagulase negative (CNS); assay: Susceptibility testing; type: cell-based; conditions: conjunctival isolates 2000–2004
[23] = system: Pseudomonas putida clinical isolates; assay: Agar dilution MIC; type: cell-based
[24] = system: Salmonella serotype Typhimurium; assay: Disk diffusion, food isolates Spain; type: cell-based; conditions: n = 53
[25] = system: H. influenzae; assay: MIC of invasive strains, Saint George Hospital 2001–2004; type: cell-based, Haemophilus influenzae; conditions: n = 129
[26] = system: Salmonella serotype Enteritidis; assay: Disk diffusion, food isolates Spain; type: cell-based; conditions: n = 96
[27] = system: Escherichia coli O157:H7; assay: Kirby-Bauer susceptibility; type: cell-based; conditions: 30 strains, 1990–2003
[28] = system: H.influenzae; assay: PROTEKT Italy, NCCLS microdilution; type: cell-based, Haemophilus influenzae
[29] = system: H. influenzae; assay: Broth microdilution; type: cell-based, Haemophilus influenzae; conditions: 267 isolates
[30] = system: C. pneumoniae target genes (LcrD, YscL, YscN, IncA, IncC, TyrB, GlyA); assay: Chlamydial gene expression; type: cell-based, Chlamydia pneumoniae; conditions: moxifloxacin 3.1 μg/ml, clarithromycin 2 μg/ml; peaking at 120 h
[31] = system: Moraxella catarrhalis (MC); assay: MIC; type: cell-based; conditions: 2497 isolates
[32] = Mediterranean spotted fever, randomised therapeutic study; type: in vivo, human
[33] = system: Nocardia spp.; assay: E-test on Mueller Hinton agar, 81 clinical isolates; type: cell-based; conditions: Nocardia
[34] = system: Streptococcus pneumoniae (SPN); assay: MIC; type: cell-based; conditions: 8378 isolates
[35] = system: Streptococcus pyogenes (SPY); assay: MIC; type: cell-based; conditions: 2522 isolates
[36] = system: H. influenzae (HI); assay: SENTRY Brazil, NCCLS broth microdilution; type: cell-based, Haemophilus influenzae
[37] = NCCLS breakpoints (Amox/Clav 2/1 mcg/mL)

In the case of `CC1(C)S[C@@H]2[C@H](NC(=O)[C@H](N)c3ccccc3)C(=O)N2[C@H]1C(=O)O` [ampicillin], the Susceptible isolates [1] was 92%, the Susceptibility ([2]; ICU, SRGA breakpoints, tigecycline tentative ≤2 μg/ml) was 99/99% and the Susceptibility ([2]; non-ICU) was 99/99%. The resistance [3] was 100%, the susceptibility rate ([4]; year 1) was 22.7% and the susceptibility rate ([4]; year 2) was 18.9%. It also gave an MIC [5] of 2 to 8 µg/mL (≈ 5.72 to 22.9 µM), a resistant isolates [6] of 9.5% and a resistance [7] of 93.1%. The resistant isolates [8] was 66.6%, the susceptibility rate ([9]; paediatric surgical unit (PSU)) was 15% and the susceptibility rate ([9]; paediatric units (PU)) was 54%. The MIC90 [10] was 8 µg/mL (≈ 22.9 µM), the “proportion of ampicillin-resistant isolates during treatment” value [11] was 98% and the MIC90 ([12]; Haemophilus influenzae) was greater than 16 µg/mL. The “%Sus” value ([12]; NCCLS) was 74.6%, the resistant [13] was 4.7% and the resistance [14] was 44%. The resistant strains [15] was 50%, the “%Sus” value [16, 37] was 0.0% and the MIC90 ([16]; Streptococcus pneumoniae) was 4 µg/mL (≈ 11.4 µM). For the same compound, the resistance [17] was 0.4%, the resistance rate ([18]; 2001–2002) was 10.9% and the resistance rate ([18]; 2003–2004) was 23.1%. The Susceptible isolates [19] was 49%, the resistant isolates [19] was 51% and the “resistance rate (NCCLS M100-S13)” value [20] was 14%. The “%Sus” value [21, 37] was 0.0%, the MIC90 ([21]; Streptococcus pneumoniae, PRSP) was 8 µg/mL (≈ 22.9 µM) and the resistant isolates [22] was 79.5%. The MIC [23] was greater than 128 µg/mL, the “resistance rate (NCCLS M100-S13)” value [24] was 62% and the resistant isolates [25] was 60%. For the same compound, the “resistance rate (NCCLS M100-S13)” value [26] was 8%, the resistant strains [27] was 13.3% and the resistance ([28]; year 1) was 26.5%. It also gave a resistance ([28]; year 2) of 20.6% and a resistant [29] of 5.2%.
For `CC[C@H]1OC(=O)[C@H](C)[C@@H](O[C@H]2C[C@@](C)(OC)[C@@H](O)[C@H](C)O2)[C@H](C)[C@@H](O[C@@H]2O[C@H](C)C[C@H](N(C)C)[C@H]2O)[C@](C)(OC)C[C@@H](C)C(=O)[C@H](C)[C@@H](O)[C@]1(C)O` [clarithromycin], the “upregulation of mRNA of all target genes” value [30] was “less prominent”, the MIC90 [31] was 0.5 ig/ml and the “adverse reactions or relapses” value ([32]; either group) was “no adverse reactions”. For the same compound, the “time for disappearance of the fever after treatment” value ([32]; group A n=14, group B n=20) was 2.57 ± 1.7 days, the “time to disappearance of symptoms” value ([32]; group A n=14, group B n=20) was 4.35 ± 2.5 days and the MIC50 [33] was 8 µg/mL (≈ 10.7 µM). The MIC90 [33] was 96 µg/mL (≈ 128 µM), the MIC90 [34] was 0.5 ig/ml and the MIC90 [35] was 0.12 ig/ml. For the same compound, the “% S” value [36]; 1998 was 90%, the “% S” value [36]; 1999 was 100% and the “% S” value [36]; 2000 was 92%. For the same compound, the “% S” value [36]; 2001 was 91%, the “% S” value [36]; 2002 was 90% and the “% S” value [36]; 2003 was 94%. The resistance ([28]; year 1) was 36.9% and the resistance ([28]; year 2) was 25.7%.
